In the supplement of paper PMC10733146:

What was measured:
Experiment in all cases: viability relative to DMSO control (fraction); higher = less drug effect (more viable cells)
Conditions in all cases: 48 h
[1] = tested on: primary MCL patient cells (S041)
How it was run: (§1)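 In 384-well plates with compounds pre-plated at five concentrations (one well per concentration), primary mononuclear tumour cells were plated at 4 × 10^4 cells per well. The cells came from blood or bone marrow by Ficoll isolation or from processed lymph node, and were used fresh or cryopreserved. Culture ran for 48 h at 37 °C and 5% CO2 in RPMI-1640 containing penicillin/streptomycin, L-glutamine and human serum. Viability was read as CellTiter-Glo luminescence, normalised to the median of 16 inner DMSO wells.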

[2] = tested on: primary FL patient cells (S022)
How it was run: as §1

[3] = tested on: primary AML patient cells (S037)
How it was run: as §1

[4] = tested on: primary AML patient cells (S006)
How it was run: as §1

[5] = tested on: primary AML patient cells (S072)
How it was run: as §1

[6] = tested on: primary FL patient cells (S087)
How it was run: as §1

[7] = tested on: primary MCL patient cells (S063)
How it was run: as §1

[8] = tested on: primary MCL patient cells (S068)
How it was run: as §1

[9] = tested on: primary AML patient cells (S079)
How it was run: as §1

[10] = tested on: primary AML patient cells (S012)
How it was run: as §1

[11] = tested on: primary CLL patient cells (S031)
How it was run: as §1

[12] = tested on: primary AML patient cells (S055)
How it was run: as §1

[13] = tested on: primary T-PLL patient cells (S008)
How it was run: as §1

[14] = tested on: primary ALL patient cells (S048)
How it was run: as §1

[15] = tested on: primary DLBCL patient cells (S082)
How it was run: as §1

[16] = tested on: primary MCL patient cells (S053)
How it was run: as §1

[17] = tested on: primary AML patient cells (S091)
How it was run: as §1

[18] = tested on: primary AML patient cells (S089)
How it was run: as §1

[19] = tested on: primary AML patient cells (S009)
How it was run: as §1

[20] = tested on: primary AML patient cells (S056)
How it was run: as §1

Q: Which results are given for `O=C(Nc1nc2ccccc2n1CCN1CCOCC1)c1cccc([N+](=O)[O-])c1` [IRAK-1/4 INHIBITOR I]?
A: viability ([1]; 0.016 µM): 0.947; viability ([1]; 0.08 µM): 1.1; viability ([1]; 0.4 µM): 0.955; viability ([1]; 2 µM): 0.981; viability ([1]; 10 µM): 0.993; viability ([2]; 0.016 µM): 0.887; viability ([2]; 0.08 µM): 0.974; viability ([2]; 0.4 µM): 0.885; viability ([2]; 2 µM): 0.915; viability ([2]; 10 µM): 0.913; viability ([3]; 0.016 µM): 0.878; viability ([3]; 0.08 µM): 0.933; viability ([3]; 0.4 µM): 0.895; viability ([3]; 2 µM): 0.885; viability ([3]; 10 µM): 1.02; viability ([4]; 0.016 µM): 0.952; viability ([4]; 0.08 µM): 0.975; viability ([4]; 0.4 µM): 0.887; viability ([4]; 2 µM): 0.751; viability ([4]; 10 µM): 0.691; viability ([5]; 0.016 µM): 0.921; viability ([5]; 0.08 µM): 0.985; viability ([5]; 0.4 µM): 0.909; viability ([5]; 2 µM): 0.869; viability ([5]; 10 µM): 0.916; viability ([6]; 0.016 µM): 0.933; viability ([6]; 0.08 µM): 1.02; viability ([6]; 0.4 µM): 0.989; viability ([6]; 2 µM): 0.994; viability ([6]; 10 µM): 1.08; viability ([7]; 0.016 µM): 0.993; viability ([7]; 0.08 µM): 0.961; viability ([7]; 0.4 µM): 1.02; viability ([7]; 2 µM): 1.03; viability ([7]; 10 µM): 1.11; viability ([8]; 0.016 µM): 0.977; viability ([8]; 0.08 µM): 0.997; viability ([8]; 0.4 µM): 1.13; viability ([8]; 2 µM): 1.27; viability ([8]; 10 µM): 1.41; viability ([9]; 0.016 µM): 0.929; viability ([9]; 0.08 µM): 0.93; viability ([9]; 0.4 µM): 0.885; viability ([9]; 2 µM): 0.906; viability ([9]; 10 µM): 0.949; viability ([10]; 0.016 µM): 0.922; viability ([10]; 0.08 µM): 0.993; viability ([10]; 0.4 µM): 0.908; viability ([10]; 2 µM): 0.954; viability ([10]; 10 µM): 0.964; viability ([11]; 0.016 µM): 0.897; viability ([11]; 0.08 µM): 0.91; viability ([11]; 0.4 µM): 0.906; viability ([11]; 2 µM): 0.861; viability ([11]; 10 µM): 0.877; viability ([12]; 0.016 µM): 0.985; viability ([12]; 0.08 µM): 0.994; viability ([12]; 0.4 µM): 1.01; viability ([12]; 2 µM): 1.02; viability ([12]; 10 µM): 0.958; viability ([13]; 0.016 µM): 0.933; viability ([13]; 0.08 µM): 1; viability ([13]; 0.4 µM): 0.935; viability ([13]; 2 µM): 0.954; viability ([13]; 10 µM): 1.03; viability ([14]; 0.016 µM): 0.726; viability ([14]; 0.08 µM): 0.836; viability ([14]; 0.4 µM): 0.811; viability ([14]; 2 µM): 0.834; viability ([14]; 10 µM): 0.808; viability ([15]; 0.016 µM): 0.863; viability ([15]; 0.08 µM): 0.932; viability ([15]; 0.4 µM): 0.926; viability ([15]; 2 µM): 1.02; viability ([15]; 10 µM): 1.07; viability ([16]; 0.016 µM): 0.823; viability ([16]; 0.08 µM): 0.939; viability ([16]; 0.4 µM): 0.915; viability ([16]; 2 µM): 0.977; viability ([16]; 10 µM): 1.09; viability ([17]; 0.016 µM): 0.911; viability ([17]; 0.08 µM): 0.936; viability ([17]; 0.4 µM): 0.951; viability ([17]; 2 µM): 0.905; viability ([17]; 10 µM): 0.798; viability ([18]; 0.016 µM): 0.772; viability ([18]; 0.08 µM): 0.973; viability ([18]; 0.4 µM): 0.849; viability ([18]; 2 µM): 1; viability ([18]; 10 µM): 0.872; viability ([19]; 0.016 µM): 1.01; viability ([19]; 0.08 µM): 0.993; viability ([19]; 0.4 µM): 0.965; viability ([19]; 2 µM): 0.933; viability ([19]; 10 µM): 0.98; viability ([20]; 0.016 µM): 0.693; viability ([20]; 0.08 µM): 1.13; viability ([20]; 0.4 µM): 0.585; viability ([20]; 2 µM): 0.817; viability ([20]; 10 µM): 0.783
